Results reported in patent US20150297619A1, “METHODS AND COMPOSITIONS FOR PRESERVING THE MUCOSAL BARRIER” (priority 2014, published 2015).

Key:
[1] = test system: ischemic small intestine segments (jejunum to ileum); assay: Ex vivo intestinal ischemia: transmural fluorescein transport across wall of flushed intestinal segments; parameters: species or system rat
Source text: Intestinal Ischemia—Since intestinal properties are non-homogenous, the transmural permeability was investigated over the entire length of the jejunum and ileum. Due to physical constraints of the small intestine anatomy, it is not feasible to simultaneously analyze permeability from multiple segments in vivo. Therefore, an ex vivo approach similar to previously published studies was designed to measure permeability along the length of the small intestine.
A midline incision was made to expose the intestine in anesthetized rats. The proximal end of the jejunum (approximately 5 cm distal from the ligament of Treitz) was cannulated with a female luer to barb tube connector (⅛″ inner diameter). The intestine was removed and placed in saline immediately before euthanasia. In order to focus the analysis on permeability of the intestinal wall during ischemia in the absence of luminal contents (including the digestive proteases or cytotoxic factors from food), the lumen of the intestine was flushed with 40 ml saline using pulsatile pressure. Visual examination confirmed all solid contents were removed. Next, the intestine was cut into eight equal length segments (˜8 cm) sequentially ordered from the proximal jejunum (position 1) to the distal ileum (position 8). Both ends of each segment were cannulated with Female Luer to Barb tube connectors (thus allowing entry and exit points from the intestinal lumen to be sealed completely), secured with 4-0 suture, and the exterior portion of one adaptor on each segment sealed with clay.
To determine the transmural permeability of the intestine, all 8 segments from each animal were filled with a low molecular weight tracer as a sensitive measure of early barrier breakdown prior to the initiation of ischemia, fluorescein (332 Da M.W., 20 μg/ml from 5 mg/ml stock in ethanol; 0.308 osm/L; Sigma-Aldrich, St. Louis, Mo.) mixed with saline, glucose (100 mg/ml in saline; 0.550 moles/L; 0.863 osm/L, Sigma-Aldrich), the non-metabolizing glucose analog mannitol (100 mg/ml in saline; 0.550 moles/L; 0.863 osm/L), the serine protease inhibitor tranexamic acid (31 mg/ml in saline; 0.200 moles/L; 0.508 osm/L, Sigma-Aldrich), the MMP inhibitor doxycycline hyclate (1 mg/ml in saline; 1.955×10^−3 moles/L; 0.310 osm/L, Sigma-Aldrich), or the MMP inhibitor GM 6001 [38] (1 μg/ml in saline from 1 mg/ml stock in DMSO; 2.57×10^−6 moles/L; 0.308 osm/L, Millipore, Billerica, Md.). […]
Sealed segments were rinsed in saline, individually placed in 15 ml conical tubes containing 6 ml saline, and incubated at 37° C. for 2 hours to simulate ischemic conditions. […] Plates were read in a plate reader (FilterMax F-5 Multi-mode, Molecular Devices, Sunnyvale, Calif.) for concentration of fluorescein (excitation 494/emission 521) to measure diffusion across the wall of the intestine.
Permeability Analysis—To determine the fluorescein transport across the ischemic intestinal wall, the fluorescence at time 0 was subtracted from fluorescence values at later time points to correct for background, and fluorescence values were corrected to account for the volume reduction due to sampling during the experiment. The RFU measurements were converted to equivalent moles by using the linear relationship between concentration and fluorescein fluorescence (not shown, R^2=0.999). The transport of fluorescein across the wall (measured in moles, per time) was computed as the change in fluorescence over a 30 min interval divided by 30 min.

hemorrhagic shock = assay: Hemorrhagic shock with enteral/IV/IP treatments: intestine, plasma and lung injury (Example 2); assay type: in vivo, rat
Description: Adult male Sprague Dawley rats (mean±standard deviation (SD) body weight 340±60 g, N=64, Harlan, Indianapolis, Ind.) were allowed food and water ad libitum prior to surgery. Rats were administered general anesthesia (xylazine, 4 mg/kg; ketamine 75 mg/kg IM) and remained anesthetized throughout the experiment. At the termination of experiments, rats were euthanized by infusion of B-Euthanasia IV (120 mg/kg). The femoral artery and vein were cannulated. Systolic, diastolic, heart rate, and mean arterial pressure (MAP) were recorded throughout the procedure using LabChart (AD Instruments, Dunedin, New Zealand).
Hemorrhagic Shock (HS) with Removal of Luminal Contents—Animals were grouped into no-HS (No-HS), HS with intestinal luminal contents flushed (HS-F), and HS without intestinal flush (HS-NF). No-HS animals were immediately sacrificed for tissue collection following cannulation. All other animals were subject to laparotomy before the intestine was exposed and gross morphology was photographically recorded. Enteral treatments were administered to the intestine before returning to the peritoneal cavity (Table 1). IV/IP injections were delivered following the intestinal injections.
Following the intestinal preparations, the animals were heparinized to minimize clotting in catheters and in shed blood samples (1 U/mL of calculated blood volume i.v.; assuming 6 mL blood volume per 100 g total body weight) before onset of hemorrhage. MAP was reduced to 30 mmHg by withdrawal of blood through the venous catheter (0.4 mL/min) with a 5 mL syringe. The initial 1 mL of blood drawn was collected, centrifuged (1000 g, 5 min), and the plasma was immediately frozen at […] for further analysis. The arterial pressure was monitored and adjusted by withdrawal/return of blood over the 90-min ischemic period. At the end of ischemia, the shed blood was returned to the animals (0.5 mL/min) plus 1 mL of saline (to replace the 1 mL of blood collected before shock).
Gross morphology images of the intestine were captured at the end of the reperfusion period. Post-HS blood was collected through the arterial catheter, spun (1000 g, 5 min), and the plasma was immediately frozen at […]. The animals were then euthanized and lung and jejunum specimen were snap frozen for homogenization or embedded in optimum cutting temperature (O.C.T.) (Saukura, Leiden, the Netherlands) for histological sectioning. Jejunum was chosen for analysis, as more intestinal hemorrhage is typically seen there than in the ileum in models of HS.
After hemorrhagic shock, bronchoalveolar lavage fluid (BALF) was collected by inserting an 18 gauge blunt needle into the left main bronchus of the left lung. The lunch was photographed to assess gross morphological damage. The images were blindly assessed for macroscopic lung damage. Scoring was as follows: 0, no visible lung damage and pink in color; 1, mostly pink in color with some dark red lesions starting to form around the central part of the lung near the trachea; 2, some pink color with more lesions forming and spreading throughout the lung; 3, dark red lesions through the majority of the lung surface; 4, complete lung damage in all parts of the organ surface.
To collect BALF fluid, saline (˜2.0 ml/lavage) was injected and recovered three times before centrifugation (1000 g, 5 min). Following the third wash, the lung was injected with O.C.T., embedded, and frozen. The total volume of recovered BALF fluid was measured and the fraction of saline recovered versus the amount injected was used to normalize all measurements.
Intestinal Hemorrhage—Segments of jejunum were mechanically homogenized by weight (10 ml per 1 g; 18,000 g, 20 min; stored at −80° C.) in 0.5% hexadecyltrimethyl-ammonium bromide (HTAB) in PBS (pH 6.0). Any luminal content present in the segment was included in the weighing and homogenization. […]

Question: For `O=C[C@H](O)[C@@H](O)[C@H](O)[C@H](O)CO` [Glucose, glucose], which “fluorescein transport across the wall of the intestine” value ([1]; ex vivo, treatment in lumen, two-hour ischemic period) is on record?
Answer: Its value is “drastically reduced”.

Question: And the “MPO activity of intestinal homogenates” value (hemorrhagic shock; after HS)?
Answer: The value was “tended to be lower”.

Question: What about the “gross morphology of the intestine (microhemorrhages)” value (hemorrhagic shock; after HS) of the same compound?
Answer: Its value is “microhemorrhages most severely”.

Question: And the “macroscopic lung injury (lung injury score)” value (hemorrhagic shock; after HS)?
Answer: Its value is “trend in reduction”.

Question: And the “plasma MMP-9 and neutrophil derived pro-MMP-9 activity” value (hemorrhagic shock; post-HS plasma, gel zymography)?
Answer: The value was “significantly more activity compared to HS+SAL”.

Question: With `NC[C@H]1CC[C@H](C(=O)O)CC1` [tranexamic acid] as the compound, how does the “fluorescein transport rates, 30-60 min and 60-90 min periods” value ([1]; ex vivo ischemia, inhibitor in lumen without glucose, vs saline) read?
Answer: The value was “significantly decreased compared to the saline treated intestines”.

Question: And the “MPO activity of intestinal homogenates” value (hemorrhagic shock; after HS)?
Answer: The value was “tended to be lower”.

Question: And the “gross morphology of the intestine (microhemorrhages)” value (hemorrhagic shock; after HS)?
Answer: Its value is “fewer regions with microhemorrhages”.

Question: And the “lung VE-cadherin levels” value (hemorrhagic shock; after HS, immunoblot)?
Answer: Its value is “significantly reduced”.

Question: What about the “lung VEGFR-2 levels” value (hemorrhagic shock; after HS, immunoblot) of the same compound?
Answer: Its value is “maintained”.
